Measured values as given in paper PMC6662706, “Short amylin receptor antagonist peptides improve memory deficits in Alzheimer’s disease mouse model” (Scientific Reports, 2019).
No end group written: not given here.

Legend:
[1] = system: 5XFAD mice; assay: Morris Water Maze and probe test, 5XFAD and wild-type mice; type: in vivo, mouse; conditions: for memory task in age-matched wild-type control mice: systemic administration, ip three times a week for 5 weeks
Description: The determination of injection amount of R5 (200 µg/kg) was based on achieving equimolar concentrations as the full length peptide, cAC253[21] and prior studies that used pramlintide injections[22],[23]. The normal mouse circulated endogenous amylin level is 0.7 ± 0.4 pmol/L in plasma[32] and based upon our in vitro data (Fig. 1E) unlikely to perturb the function of peptides in vivo at these concentrations.
For in vivo studies, 5XFAD mouse breeding stocks were obtained from the Jackson Laboratory (JAX #006554). Intraperitoneal injection (ip) administration of fragment R5 and cAC253 was carried out in 5XFAD mice and wild-type littermate control mice (both male and female). These mice were equally and randomly distributed into 6 groups (n = 10 for each group), and received either normal saline (NS), cAC253 or R5 fragment (200 µg/kg) i.p. injections 3 times a week starting at 6 months of age for 5 weeks.
The Morris Water Maze (MWM) and probe test were carried out for behavioral testing. The mice were trained for 3 days (4 trials per day) to find a submerged platform (target quadrant, TQ). The trial ended when a mouse found and climbed onto the platform within 120s. Mice were tested with inter-trial interval of 50 min. Memory was evaluated in probe trial, administered on day 4 as the first trial of the day. During probe trial, the platform was removed from the pool. Memory for the platform location was expressed as the percent of time spent in TQ.
For in vivo experiments, intraperitoneal injection (ip) administration of fragment R5 and cAC253 was carried out in 6 month old transgenic 5XFAD mice and wild-type littermate control mice (both male and female) obtained from Dr. David Westaway (University of Alberta). These mice were equally and randomly distributed into 6 groups and 10 mice assigned for each group, Tg-NS, Tg-cAC253, Tg-R5, Wt-NS, Wt-cAC253, Wt-R5. Randomized double blind control experiment was carried out for the whole in vivo experiment, i.e. the individual administering ip injections was blinded to the identity of the drug, and the individual testing behavior was blind to the treatment being administered. […]
The MWM apparatus consisted of 2-m circular blue plastic pool filled with water (24–25°C), which was rendered opaque by the addition of non-toxic white paint. […] The behavior of a mouse was recorded by a video camera connected to a video tracking system (HVS Image 2100, HVS Image, Buckingham, UK).
The pool was surrounded by a white curtain, and a mouse was released facing the wall at points (N, E, S, W) which were chosen semi-randomly. […] Memory was evaluated in probe trial, administered on day 4 as the first trial of the day. […] Memory for the platform location was expressed as the percent of time spent in TQ.

[2] = system: ERK1/2 signaling pathway downstream of AMY3 receptor; assay: hAmylin-evoked phosphoERK1/2 in HEK-AMY3 cells; type: cell-based; conditions: peptides 10 μM, hAmylin 1 μM, n = 3
Excerpt: Human amylin is a potent agonist at amylin receptor stimulating cAMP production in cells. In the first in vitro bioassay, we examined ability of R5 and R14 to block the hAmylin-evoked cAMP generation in HEK-AMY3 cells. R11 peptide served as a negative control. […] In a second in vitro assay, we examined whether peptides R5, and R14 could protect human fetal neurons (HFNs) and N2a (mouse neuroblastoma cell line) from Αβ1–42 induced cytotoxicity.
A shorter peptide library was derived from AC253 peptide sequence comprising 12–14 amino acid peptides. […] To determine the activity of these shorter peptides to block AMY3 receptor signaling, cellular cAMP levels (measured using a parameter cyclic AMP assay kit, R&D Systems) and phosphorylation ERK1/2 (Western blot) were measured. We assessed neuroprotective properties of the peptide fragments against Aβ cytotoxicity in vitro using the MTT assay in N2a cell line and human fetal neurons (HFNs), which were prepared from 12- to 15-gestational week fetuses with approval of the Human Ethics Research Board at the University of Alberta as previously reported[17],[19].
Intracellular signaling profiles were determined using in-cell Western blot techniques as previously described ^8. […]

| Substance | Morris Water Maze escape latencies, 5XFAD mice versus normal saline ([1]; 200 µg/kg ip three times a week for 5 weeks from 6 months of age, n = 9 mice per group) | Probe trial, quadrant preference, 5XFAD mice ([1]; 200 µg/kg ip three times a week for 5 weeks, n = 9) | memory task in age-matched wild-type control mice [1] | effect on increases in phosphoERK1/2 evoked by hAmylin [2] |
| --- | --- | --- | --- | --- |
| SQELHRLQTYPR-NH2 [R5] | marked improvement in escape latencies | preference for the target quadrant | no alterations in the memory task | reduce increases in phosphoERK1/2 |
| LGRLSQELHRLQTYPRTNTGSNTY-NH2 (C-terminus assumed) [AC253, reference compound] | – | – | no alterations in the memory task | reduce increases in phosphoERK1/2 |
